The results in this text go back to patent US6984649B1, “Pyridine derivatives” (Bayer Aktiengesellschaft, priority 2000, dated 2006).

Structures can show the parent of a compound that is named as a salt.

In this assay the target is T1, human IKK-β (Homo sapiens, UniProt O14920).
T1 construct: A cDNA fragment encoding human IKK-β open reading frame was generated by PCR; His tag (from pcDNA3.1/His C); made in house; host or cells: Sf21 insect cells (baculovirus); substrate made in E. coli
T1 sequence (O14920 1-756): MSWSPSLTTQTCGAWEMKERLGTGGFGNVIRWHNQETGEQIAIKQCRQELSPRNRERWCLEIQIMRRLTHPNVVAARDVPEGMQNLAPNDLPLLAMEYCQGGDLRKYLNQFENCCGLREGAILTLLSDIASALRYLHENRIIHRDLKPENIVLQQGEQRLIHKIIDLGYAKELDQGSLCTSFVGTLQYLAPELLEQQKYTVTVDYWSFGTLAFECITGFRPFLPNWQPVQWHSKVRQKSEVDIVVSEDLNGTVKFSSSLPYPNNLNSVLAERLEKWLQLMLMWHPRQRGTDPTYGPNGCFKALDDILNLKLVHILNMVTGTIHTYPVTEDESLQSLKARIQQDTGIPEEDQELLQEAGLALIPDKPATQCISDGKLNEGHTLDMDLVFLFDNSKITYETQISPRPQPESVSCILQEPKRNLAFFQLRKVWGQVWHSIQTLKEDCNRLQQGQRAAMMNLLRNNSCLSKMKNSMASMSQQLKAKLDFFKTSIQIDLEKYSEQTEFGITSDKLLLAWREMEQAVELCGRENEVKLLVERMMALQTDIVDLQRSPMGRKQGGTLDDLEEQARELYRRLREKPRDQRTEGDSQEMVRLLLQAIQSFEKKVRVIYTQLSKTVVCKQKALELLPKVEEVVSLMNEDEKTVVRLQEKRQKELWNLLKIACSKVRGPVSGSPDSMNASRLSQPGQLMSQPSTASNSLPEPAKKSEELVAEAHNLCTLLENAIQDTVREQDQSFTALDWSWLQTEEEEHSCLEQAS
Kind of assay: IKK-β kinase inhibitory assay. In kind it is biochemical. To be noted: compounds as yielded by solid phase synthesis, purity about 40 to 90%, read-out: In vitro activity grade (In vitro IC50). An excerpt:
[IKK-β Kinase Inhibitory Assay]
(1) Preparation of IKK-β Kinase Protein.
• A cDNA fragment encoding human IKK-β open reading frame was generated by PCR with the use of a pair of primers designed from the published sequence (Woronicz J D et al. (1997) Science 278, 866-869). A template was obtained from Quickclone cDNA (Clontech) using Elongase™ Amplification kit (Life Technologies). The DNA fragments generated by PCR were gel-purified and subcloned into pBluescript. The cDNA fragment cloned in pBluescript was inserted into pcDNA3.1/His C KpnI/NotI, and transferred into pVL1393 SmaI/XbaI (Pharmingen) to construct a baculovirus transfer vector. Then the vector, together with the linearized baculovirus (BaculoGold™, Pharmingen) was used to transfect Sf21 cells (Invitrogen, San Diego, Calif.). Generated recombinant baculovirus was cloned and amplified in Sf21 cells, grown in TNM-FH insect cell medium (Life Technologies, Inc.) supplemented with 10% FCS, […] Gentamycin, 0.1% Pluronic F-68 (Life Technologies, Inc.) as suspension culture (200 ml in 1 L Erlenmeyer flask; 27° C.; 130 rpm). Sf21 cells were infected with this amplified virus with a multiplicity of infection of 5 following standard protocols (Crossen R, Gruenwald S (1997) Baculovirus Expression Vector System Instruction Manual, Pharmingen Corporation) and harvested 48 hrs later. The cells were lysed to obtain the produced chimeric protein of IKK-β kinase fused by histidine (His-tagged IKK-beta). (2) The Preparation of Purified GST-IκBα Fusion Proteins • An expression vector containing the nucleotide sequence encoding fusion protein of GST with amino acid residues 1 to 54 of IκBα under the control of an IPTG-inducible promoter was constructed. The expression vector was introduced in E. coli and the transformant was cultured and lysed to obtain a GST-IκBα fusion protein. Then the resulting GST-IκBα fusion protein was purified and biotinated for kinase assay. (3) The Measurement of IKK-β Kinase Activity • The 96-well format kinase assay of IKK-β were performed to test the inhibitory activity of the compounds of the present invention. First, 5 μl of a test compound was put in the presence of 2.5% dimethyl sulfoxide (DMSO) in each well in a U-bottomed 96-well plate (Falcon). For control wells of background (BG) and total phosphorylation (TP), 5 μl of 2.5% DMSO was put. Recombinant IKK-β (final 0.6 μg/ml) and bio-GST-IκBα (1-54) (final 0.2 μM) were diluted in 25 μl of 2×kinase buffer β (40 mM Tris-HCl, pH 7.6, 40 mM MgCl2, 40 mM β-glycerophosphate, 40 mM p-nitrophenylphosphate, 2 mM EDTA, 40 mM creatine phosphate, 2 mM DTT, 2 mM Na3VO4, 0.2 mg/ml BSA and 0.8 mM phenylmethylsulfonyl fluoride) and transferred to the 96-well plate. Bio-GST-IκBα (1-54) in 25 μl of 2×kinase buffer β without IKK-β was transferred to BG wells. Then 20 μl of 12.5 μM ATP, 62.5 μCi/ml [γ-^33P] ATP (Amersham Pharmacia Biotech) was added and the resulting mixture was incubated for 2 hrs at room temperature. The kinase reactions were terminated by the addition of 150 μl of termination buffer (100 mM EDTA, 1 mg/ml BSA, 0.2 mg NaN3). One hundred and fifty μl of the sample were transferred to a streptavidin-coated, white MTP (Steffens Biotechniche Analysen GmbH #08114E14.FWD) to capture the biotinylated substrates. After 1 hr of incubation, non-bound radioactivity was eliminated by washing the wells five times with 300 μl of washing buffer including 0.9% NaCl and 0.1% (w/v) Tween-20 with the use of a MW-96 plate washer (BioTec). The bound radioactivity was determined after the addition of 170 μl MicroScint-PS scintillation cocktail (Packard) using a TopCount scintillation counter. [Syk Tyrosine Kinase Inhibitory Assay for Selectivity] (1) Preparation of Syk Protein • A cDNA fragment encoding human Syk openreading frame was cloned from total RNA of human Burkitt's lymphoma B cell lines, Raji (American Type Culture Collection), with the use of RT-PCR method.
Take `N#Cc1c(C2=CCCNC2)cc(-c2ccccc2O)nc1N` [Example 1-9, 2′-amino-6′-(2-hydroxyphenyl)-1,2,5,6-tetrahydro-3,4′-bipyridine-3′-carbonitrile hydrochloride]: the concentration for half-maximal inhibition (IC50) is less than 500 nM.

As for `Nc1nc(-c2ccccc2O)cc2c1C(=O)N1CCCC2C1` (centres unmarked) [Example 8-1, 6-amino-4-(2-hydroxy-phenyl)-5,9-diaza-tricyclo[7.3.1.0^2,7]trideca-2(7),3,5-trien-8-one], the IC50 lay in the range of 500 to 2000 nM.

With `N#Cc1c(C2CCCNC2)cc(-c2sccc2O)nc1N` (centres unmarked) [Example 1-7, 2-amino-6-(3-hydroxy-2-thienyl)-4-(3-piperidinyl)nicotinonitrile hydrobromide], the IC50 was less than 500 nM.

Consider `Nc1nc(-c2c(O)cccc2OCC2CC2)cc(C2CCNCC2)c1CON1C(=O)CCC1=O` [Example 21-4, 1-{[2-amino-6-[2-(cyclopropylmethoxy)-6-hydroxyphenyl]-4-(4-piperidinyl)-3-pyridinyl]methoxy}-2,5-pyrrolidinedione hydrochloride], for which the IC50 is less than 500 nM.

For `N#Cc1c(N2CCCC(N)C2)cc(-c2ccccc2O)nc1N` (centres unmarked) [Example 34-3, 2-amino-4-(3-amino-1-piperidinyl)-6-(2-hydroxyphenyl)nicotinonitrile hydrochloride], the IC50 lay in the range of 500 to 2000 nM.

In the case of `Nc1nc(-c2ncccc2O)cc(C2CCCNC2)c1CO` (centres unmarked) [Example 11-3, 6′-amino-5′-(hydroxymethyl)-4′-3-piperidinyl)-2,2′-bipyridin-3-ol hydrochloride], the IC50 was less than 500 nM.

Take `Nc1nc(-c2c(O)cccc2OCC2CC2)cc(C2CCCNC2)c1CO` (centres unmarked) [Example 12-1, 2-[6-amino-5-(hydroxymethyl)-4-(3-piperidinyl)-2-pyridinyl]-3-(cyclopropylmethoxy)phenol hydrochloride]: the half-inhibitory concentration (IC50) is less than 500 nM.

For the compound `NC(=O)c1c(C2CCCNC2)cc(-c2ccccc2O)nc1N` (centres unmarked) [Example 7-1, 2-amino-6-(2-hydroxyphenyl)-4-(3-piperidinyl)nicotinamide hydrochloride], the IC50 was less than 500 nM.

Regarding `N#Cc1c(C2CCCNC2)cc(-c2ccccc2O)nc1NCc1ccccc1` (centres unmarked) [Example 4-1, 2-(benzylamino)-6-(2-hydroxyphenyl)-4-(3-piperidinyl)nicotinonitrile hydrochloride], the IC50 is less than 500 nM.

Consider `Nc1nc(-c2c(O)cccc2OCc2ccccc2)cc2c1CN1CCCC2C1` (centres unmarked) [Example 20-1, 2-(6-amino-5,9-diazatricyclo[7.3.1.02,7]trideca-2,4,6-trien-4-yl)-3-(benzyloxy)phenol hydrochloride], for which the IC50 lay within 500 to 2000 nM.

As for `Nc1nc(-c2c(O)cccc2OCC2CC2)cc(C2CCNCC2)c1Cn1ccnc1` [Example 21-2, 2-[6-amino-5-(1H-imidazol-1-ylmethyl)-4-(4-piperidinyl)-2-pyridinyl]-3-(cyclopropylmethoxy)phenol hydrochloride], the IC50 is less than 500 nM.

Consider `Oc1cccc(OCC2CC2)c1-c1cc(C2CCCNC2)c2c(n1)NCOC2` (centres unmarked) [Example 17-1, 3-(cyclopropylmethoxy)-2-[5-(3-piperidinyl)-1,4-dihydro-2H-pyrido[2,3-d][1,3]oxazin-7-yl]-phenol hydrochloride], for which the IC50 is less than 500 nM.

As for `O=C1NCc2c(C3CCCNC3)cc(-c3c(O)cccc3OCC3CC3)nc2N1` (centres unmarked) [Example 22-2, 7-[2-(cyclopropylmethoxy)-6-hydroxyphenyl]-5-(3-piperidinyl)-3,4-dihydro-1H-pyrido[2,3-d]-pyrimidin-2-one hydrochloride], the 50% inhibitory concentration (IC50) was less than 500 nM.

For `N#Cc1c(C2CCCNC2)cc(-c2ccccc2O)nc1N` (centres unmarked) [Example 1-1, 2-amino-6-(2-hydroxyphenyl)-4-(3-piperidinyl)-nicotinonitrile hydrochloride], the 50% inhibitory concentration (IC50) was less than 500 nM.

For `CC(=O)Nc1cccc(O)c1-c1cc(C2CCCNC2)c(C#N)c(N)n1` (centres unmarked) [Example 1-12, N-{2-[6-amino-5-cyano-4-(3-piperidinyl)-2-pyridinyl]-3-hydroxyphenyl}acetamide hydrochloride], the IC50 is 2000 to 10000 nM.

`CC1OC(=O)Nc2nc(-c3ccccc3O)cc(C3CCCNC3)c21` (centres unmarked) [Example 18-3, hydrochloride]: the IC50 lay within 500 to 2000 nM.

With `N#Cc1c(C2CCNCC2)cc(-c2c(O)cccc2OCC2CC2)nc1N` [Example 2-3, hydrochloride], the IC50 was less than 500 nM.

As for `CCCNc1nc(-c2ccccc2O)cc(C2CCCNC2)c1C#N` (centres unmarked) [Example 4-2, 6-(2-hydroxyphenyl)-4-(3-piperidinyl)-2-(propylamino)nicotinonitrile hydrochloride], the IC50 is 2000 to 10000 nM.

As to `Nc1ncnc2nc(-c3c(O)cccc3OCC3CC3)cc(C3CCCNC3)c12` (centres unmarked) [Example 32-1, 2-[4-amino-5-(3-piperidinyl)pyrido[2,3-d]pyrimidin-7-yl]-3-(cyclopropylmethoxy)phenol hydrochloride], the IC50 fell in the range of 2000 to 10000 nM.

`N#Cc1c(C2CCCNC2)cc(-c2c(O)cccc2OCc2ccccc2)nc1N` (centres unmarked) [Example 2-2, 2-amino-6-[2-(benzyloxy)-6-hydroxyphenyl]-4-(3-piperidinyl)nicotinonitrile hydrochloride]: the IC50 was less than 500 nM.

`Nc1cc2c(C3CCCNC3)cc(-c3c(O)cccc3OCC3CC3)nc2[nH]c1=O` (centres unmarked) [Example 29-01, 3-amino-7-[2-(cyclopropylmethoxy)-6-hydroxyphenyl]-5-(3-piperidinyl)-1,8-naphthyridin-2(1H)-one hydrochloride]: the half-inhibitory concentration (IC50) was less than 500 nM.

For `N#Cc1c(N)nc(-c2ccccc2O)c(F)c1C1CCCNC1` (centres unmarked) [Example 1-4, 2-amino-5-fluoro-6-(2-hydroxyphenyl)-4-(3-piperidinyl)-nicotinonitrile trifluoroacetate], the IC50 was less than 500 nM.

In the case of `CC(=O)Nc1nc(-c2ccccc2O)cc(C2CCCNC2)c1C#N` (centres unmarked) [Example 6-1, N-[3-cyano-6-(2-hydroxyphenyl)-4-(3-piperidinyl)-2-pyridinyl]acetamide hydrochloride], the half-maximal inhibitory concentration (IC50) was less than 500 nM.
